Test results from PubChem BioAssay AID1963826 (Molecular Pharmacology Branch, DTP, NCI, 2024).

Test system: 926638-142-R-J1-PDC complex spheroid viability
Test: Anticancer human tumor 926638-142-R-J1-PDC patient-derived endometrial carcinoma cell line growth inhibition [POLQ]
Settings: for IC50: curve of first compound; for viability, T/C: stronger effect = lower value; active = viability on the fitted dose curve at most 10% of control; inactive = the rest
Method in brief: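 Complex spheroid viability model combining PDC tumour cells with endothelial (HUVEC) and MSC stromal cells. Novobiocin, ART-558 or RP6685 were tested singly and in combination with standard and investigational anticancer drugs. Each was titrated in half-log steps from near clinical Cmax, or from 10 microM where Cmax was unknown.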
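Note: spheroids exposed to drugs for one week before readout.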
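Throughout, for viability, T/C: percent viability relative to DMSO vehicle control wells set as 100%.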

Nc1ccn(C2OC(CO)C(O)C2(F)F)c(=O)n1 (configuration not stated) + Nc1ccc(C#CCN(C(=O)Cc2ncc(C(F)(F)F)cc2C(F)(F)F)c2ccc(F)cc2)nn1
2400 nM: IC50 (second compound 10 µM)
inactive: viability, T/C (second compound 0.0316 µM, first compound 0.0316 µM) 76.5% | viability, T/C (second compound 0.0316 µM, first compound 0.1 µM) 63.9% | viability, T/C (second compound 0.0316 µM, first compound 0.316 µM) 57% | viability, T/C (second compound 0.0316 µM, first compound 1 µM) 52.7% | viability, T/C (second compound 0.0316 µM, first compound 3.16 µM) 43.9% | viability, T/C (second compound 0.0316 µM, first compound 10 µM) 29.6% | viability, T/C (second compound 0.1 µM, first compound 0.0316 µM) 96.8% | viability, T/C (second compound 0.1 µM, first compound 0.1 µM) 82.5% | viability, T/C (second compound 0.1 µM, first compound 0.316 µM) 49.4% | viability, T/C (second compound 0.1 µM, first compound 1 µM) 44.6% | viability, T/C (second compound 0.1 µM, first compound 3.16 µM) 49.9% | viability, T/C (second compound 0.1 µM, first compound 10 µM) 25.6% | viability, T/C (second compound 0.316 µM, first compound 0.0316 µM) 91.2% | viability, T/C (second compound 0.316 µM, first compound 0.1 µM) 72% | viability, T/C (second compound 0.316 µM, first compound 0.316 µM) 61.8% | viability, T/C (second compound 0.316 µM, first compound 1 µM) 49.2% | viability, T/C (second compound 0.316 µM, first compound 3.16 µM) 40.8% | viability, T/C (second compound 0.316 µM, first compound 10 µM) 27% | viability, T/C (second compound 1 µM, first compound 0.0316 µM) 81.8% | viability, T/C (second compound 1 µM, first compound 0.1 µM) 65.7% | viability, T/C (second compound 1 µM, first compound 0.316 µM) 51.1% | viability, T/C (second compound 1 µM, first compound 1 µM) 47.5% | viability, T/C (second compound 1 µM, first compound 3.16 µM) 49.6% | viability, T/C (second compound 1 µM, first compound 10 µM) 28.9% | viability, T/C (second compound 3.16 µM, first compound 0.0316 µM) 80% | viability, T/C (second compound 3.16 µM, first compound 0.1 µM) 67.5% | viability, T/C (second compound 3.16 µM, first compound 0.316 µM) 49.9% | viability, T/C (second compound 3.16 µM, first compound 1 µM) 42.9% | viability, T/C (second compound 3.16 µM, first compound 3.16 µM) 44.6% | viability, T/C (second compound 3.16 µM, first compound 10 µM) 33.3% | viability, T/C (second compound 10 µM, first compound 0.0316 µM) 79.6% | viability, T/C (second compound 10 µM, first compound 0.1 µM) 73.1% | viability, T/C (second compound 10 µM, first compound 0.316 µM) 66.3% | viability, T/C (second compound 10 µM, first compound 1 µM) 48% | viability, T/C (second compound 10 µM, first compound 3.16 µM) 55.4% | viability, T/C (second compound 10 µM, first compound 10 µM) 38.9%
1060 nM: IC50 (second compound 0.0316 µM)
701 nM: IC50 (second compound 1 µM)
682 nM: IC50 (second compound 0.1 µM)
449 nM: IC50 (second compound 3.16 µM)
948 nM: IC50 (second compound 0.316 µM)
